Results as given in ChEMBL document CHEMBL1129199, “Trifluoromethyl alcohol and ketone inhibitors of metallo--lactamases” (Bioorg Med Chem Lett, 1996).

Assays:
[1] = Compound was evaluated for inhibition of metallo beta lactamase from Aeromonas hydrophilia AE036.; set-up: species or system Aeromonas hydrophila
Aeromonas hydrophila = test: Compound was evaluated for kinetic data for the inhibition of metallo beta lactamase from Aeromonas hydrophilia AE036.
[2] = Compound was evaluated for inhibition of metallo beta lactamase from bacillus cereus 569H
[3] = Compound was evaluated for inhibition of metallo beta lactamase from Pseudomonas aeruginosa 101
[4] = Compound was evaluated for inhibition of metallo beta lactamase from xanthomonas maltophilia ULA-511; set-up: species or system Stenotrophomonas maltophilia
[5] = Ratio of K+2/K of the compound

Row | Ki [1] | k+2 (Aeromonas hydrophila) | Ki [2] | Ki [3] | Ki [4] | k+2/k [5] | SMILES
1 | 6 µM | 4.3 s⁻¹ | 500 µM | 530 µM | 15 µM | 7.2 M⁻¹ s⁻¹ | O=C(COc1ccccc1)N[C@@H](Cc1ccccc1)C(=O)C(F)(F)F
2 | 20 µM | 3.9 s⁻¹ | 30 µM | 60 µM | > 5000 µM | 1.9 M⁻¹ s⁻¹ | O=C(COc1ccccc1)N[C@H](Cc1ccccc1)[C@@H](O)C(F)(F)F
3 | 19 µM | 4.3 s⁻¹ | 1000 µM | 900 µM | > 5000 µM | 2.3 M⁻¹ s⁻¹ | O=C(COc1ccccc1)N[C@@H](Cc1ccccc1)[C@@H](O)C(F)(F)F
4 |  |  | 1000 µM |  |  |  | O=C(COc1ccccc1)N[C@H](Cc1ccccc1)C(=O)C(F)(F)F
5 | 217 µM | 1.1 s⁻¹ | 700 µM | 400 µM | 35 µM | 5.25 M⁻¹ s⁻¹ | C[C@@H](NC(=O)COc1ccccc1)[C@@H](O)C(F)(F)F
6 |  |  | 3000 µM | 400 µM | > 5000 µM |  | C[C@H](NC(=O)COc1ccccc1)[C@@H](O)C(F)(F)F

Row | SMILES | Ki [1] | k+2 (Aeromonas hydrophila) | Ki [2] | Ki [3] | Ki [4] | k+2/k [5]
7 | C[C@H](NC(=O)COc1ccccc1)C(=O)C(F)(F)F | 44 µM | 4 s⁻¹ | 300 µM | 300 µM | 1.5 µM | 9.1 M⁻¹ s⁻¹
8 | C[C@@H](NC(=O)COc1ccccc1)C(=O)C(F)(F)F | 11 µM | 1 s⁻¹ | 700 µM | 500 µM | 3 µM | 9.1 M⁻¹ s⁻¹
